Test results: patent publication US20250320190A1, “Novel Inhibitors of Leucine Carboxyl Methyltransferase-1 (LCMT-1) and Methods of Use Thereof” (Temple University-Of The Commonwealth System of Higher …, priority 2024, published 2025)

How the values were obtained:
[1] = test system: 501-MEL cells; assay: Cytotoxicity assay (CellTiter 96 AQeous); type: cell-based; details: Homo sapiens, 48 hours
Method: (§1) MCF7, MDA-MB-231, 501-MEL, Rosi, A549, SCC-15, SCC-25, UM-SCC-12, UM-SCC-14a, UM-SCC-49 and UM-SCC69 cells were seeded in 96-well tissue culture plates (Corning, New York) at a density of 2.5×10^3 cells/well. After 24 hours, the media were changed to media with LCMT-li (ChemSpace, Monmouth Junction, New Jersey) at various concentrations (0.78-200 μM). Control cells were given fresh media. After 48 hours cell viability was assessed using CellTiter 96® AQeous Non-Radioactive Cell Proliferation Assays (Promega Corporation, Madison Wisconsin). Plates were read after 4 hours with a GloMax® Discover plate reader (Promega Corporation, Madison Wisconsin). The cytotoxicity assays were performed at least twice, each time with eight replicates per condition.
(§2) Statistical analyses were performed with GraphPad Prism software (version 10.4.1). Effective concentrations that inhibited 50% of cells (EC50, log agonist versus response) were estimated with nonlinear fit curves. Absorbance values for cytotoxity assays and relative densities for Western blot assays were compared using Kruskal-Wallis analyses of variance with Dunn's correction for multiple comparisons. For flow cytometric analyses, two-way analyses of variance with Tukey's correction for multiple comparisons were used.

[2] = test system: Rosi cells; assay: Cytotoxicity assay (CellTiter 96 AQeous); type: cell-based; details: Homo sapiens, 48 hours
Method: as §1, §2

[3] = test system: UM-SCC-12 cells; assay: Cytotoxicity assay (CellTiter 96 AQeous); type: cell-based; details: Homo sapiens, 48 hours
Method: as §1, §2

[4] = test system: UM-SCC-69 cells; assay: Cytotoxicity assay (CellTiter 96 AQeous); type: cell-based; details: Homo sapiens, 48 hours
Method: as §1, §2

[5] = test system: UM-SCC-49 cells; assay: Cytotoxicity assay (CellTiter 96 AQeous); type: cell-based; details: Homo sapiens, 48 hours
Method: as §1, §2

[6] = test system: A549 cells; assay: Cytotoxicity assay (CellTiter 96 AQeous); type: cell-based; details: Homo sapiens, 48 hours
Method: as §1, §2

[7] = test system: MCF7 cells; assay: Cytotoxicity assay (CellTiter 96 AQeous); type: cell-based; details: Homo sapiens, 48 hours
Method: as §1, §2

[8] = test system: UM-SCC-14a cells; assay: Cytotoxicity assay (CellTiter 96 AQeous); type: cell-based; details: Homo sapiens, UMSCC14A, 48 hours
Method: as §1, §2

[9] = test system: MDA-MB-231 cells; assay: Cytotoxicity assay (CellTiter 96 AQeous); type: cell-based; details: Homo sapiens, 48 hours
Method: as §1, §2

[10] = test system: SCC-15 cells; assay: Cytotoxicity assay (CellTiter 96 AQeous); type: cell-based; details: Homo sapiens, 48 hours
Method: as §1, §2

[11] = test system: UM-SCC-12 cells; assay: Annexin V assay with and without irradiation; type: cell-based, human
Method: (§3) Head and neck cancer (HNC) cell lines were used for further analyses. Cells were seeded in 60 mm dishes at a density of 8×10^5 cells/dish. After 24 hours, cells were treated with LCMT-li, radiotherapy or both. Control cells were given fresh media. Because radiosensitization was seen between 2.5-10 μM in SCC-15, SCC-25, UM-SCC-49, and UM-SCC-69, irradiated cells were treated with or without 10 μM LCMT-li as described. Twenty-four hours after treatment, cells were lifted with Accutase and washed twice with PBS (pH 7.4) with 10% FBS. Cells were resuspended in annexin V binding buffer (10 mM HEPES (pH 7.4), 140 mM NaCl and 2.5 mM CaCl2)) and labeled with FITC-anti-Annexin V and 7-AAD (Biolegend, San Diego, California, FITC Annexin V Apoptosis Detection Kit with 7-AAD, catalog #640922). Cell surface annexin V expression was assessed immediately with flow cytometry. Annexin V assays were performed with 12 replicates, 104 cells/replicate.

[12] = test system: UM-SCC-69 cells; assay: Annexin V assay with and without irradiation; type: cell-based, human
Method: as §3

[13] = test system: UM-SCC-49 cells; assay: Annexin V assay with and without irradiation; type: cell-based, human; details: LCMT-li, irradiation or both
Method: as §3

[14] = test system: UM-SCC-14a cells; assay: Annexin V assay with and without irradiation; type: cell-based, human; details: LCMT-li combined with irradiation
Method: as §3

[15] = test system: SCC-25 cells; assay: Annexin V assay with and without irradiation; type: cell-based, human; details: alone or in combination with irradiation
Method: as §3

[16] = test system: SCC-15 cells; assay: Annexin V assay with and without irradiation; type: cell-based, human
Method: as §3

[17] = LCMT-li monotherapy vs control cells
[18] = 10 μM LCMT-li with irradiation vs irradiation alone

COC(=O)c1c(NC(=O)c2ccccc2C)sc(C(=O)Nc2cccc(C)c2)c1C [Compound 2, methyl 4-methyl-2-[(2-methylbenzoyl)amino]-5-[[(3-methylphenyl)amino]carbonyl]-3-thiophenecarboxylate]
EC50 [1]: 60.6 µM | EC50 [2]: 3.16 µM | EC50 [3]: 209 µM | EC50 [4]: 2.49 µM | EC50 [5]: 4.95 µM | EC50 [6]: 41.4 µM | EC50 [7]: 2.24 µM | EC50 [8]: 26.4 µM | EC50 [9]: 3.89 µM | EC50 [10]: 4.26 µM | apoptosis (annexin V) [11, 17]: increased apoptosis | apoptosis (annexin V) ([11]; with irradiation vs irradiation alone): did not increase apoptosis in the presence of irradiation as compared to irradiation alone | apoptosis (annexin V) [12, 18]: increased apoptosis in comparison to irradiation alone | apoptosis (annexin V) [12, 17]: increased apoptosis | apoptosis, necroptosis and ferroptosis [13]: did not differ between the experimental conditions | programmed cell death [14]: did not increase programmed cell death | apoptosis or ferroptosis [15]: did not increase apoptosis or ferroptosis | apoptosis (annexin V) [16, 18]: increased apoptosis in comparison to irradiation alone | apoptosis (annexin V) ([16]; LCMT-li monotherapy vs control cells, 24 hours): increased apoptosis
